Literature values in US20250009631A1, “METHOD OF NAIL STRENGTHENING WITH A COMPLEX MICHAEL ADDITION TREATMENT COMPOSITION” (Wella Operations US, LLC, priority 2023, published 2025).
Where two headings read alike, the source gives them in different places.

Conditions: nail plate

c1ccncc1 [pyridine]
permeability coefficient (pH 2): at least some permeation | permeability coefficient (pH 7.4): high permeation coefficient
